{
  "source": "patent US4897254A",
  "about": "“Radioactive compositions for the treatment of calcific tumors” (priority 1987, dated 1990)",
  "key": {"[1]": {"conditions": "cited from earlier work"}, "[2]": {"assay": "two-hour rat biodistribution after tail vein injection (NaI scintillation counting of dissected tissues)", "conditions": "in vivo", "text": "Quantitative biodistributions were obtained by injecting 50-100 microliters of the composition into the tail vein of unanesthetized male Sprague Dawley rats. The rats were then placed in cages lined with absorbent paper in order to collect all urine excreted prior to sacrifice. After a given period of time, the rats were sacrificed by cervical dislocation and the various tissues dissected. The samples were then rinsed with saline, blotted dry on absorbent paper and weighed."}, "[3]": {"conditions": "radionuclide; cited from earlier work"}, "[4]": {"conditions": "patients with metastatic bone lesions"}},
  "data": [
    {"compound": "NC(c1ccc(O)c([131I])c1)(P(=O)(O)O)P(=O)(O)O", "note": "[α-amino-(3-iodo-4-hydroxybenzylidene)diphosphonate]", "values": [
      {"measurement": "possible metabolite", "setting": "[1]; in vivo", "result": "iodide as one of the possible metabolites"}
    ]},
    {"compound": "Sm-153-diethylenetriaminepentaacetic acid [Sm-153-DTPA]", "values": [
      {"measurement": "skeletal uptake (in words)", "setting": "[2]", "result": "low skeletal uptake"}
    ]},
    {"compound": "Sm-153-nitrilotriacetic acid [Sm-153-NTA]", "values": [
      {"measurement": "liver uptake (in words)", "setting": "[2]", "result": "high liver uptake"}
    ]},
    {"compound": "Strontium-89", "values": [
      {"measurement": "blood levels", "setting": "[1]; [4]", "result": "high blood levels"},
      {"measurement": "lesion to normal bone ratios", "setting": "[1]; [4]", "result": "low lesion to normal bone ratios"},
      {"measurement": "half-life", "setting": "[3]", "result": 50.4, "unit": "days"}
    ]}
  ]
}
